Data from patent US5869456A, “Use of glutathione diesters” (priority 1995, dated 1999).
Read-outs that look alike come from different tables or passages of the source.

How the values were obtained:
[1] = tested on: Hamsters (liver, kidney, blood plasma); assay: Thiol levels in hamsters treated with GSH esters; type: in vivo, Syrian hamster; details: 1 hour later
Procedure: Plasma Samples: 190 μl 50 mM DTPA, total 70 μ1 sample plus 3.33% SSA, 17.5 μl Tris, 10 μl of mBBr; after 20 min in the dark, 7.5 μl glacial acetic acid. Reduced Plasma Samples: 170μ 50 mM DTPA, 20 μl 16 mM DTT in 50 mM DTPA, remainder as above; the samples were agitated at room temperature for 20 min. After reduction, mBBr was added and the derivatization proceeds as above.
Other Animal Tissues. 385 μl 50 mM DTPA, 140 μl sample. 20 μl mBBr, 40 μl Tris; 20 minutes in the dark, 15 μl glacial acetic acid. Standards for all sample types were prepared using identical derivatization procedures.
Recovery of Tissues from Syrian Hamsters. Animals were anesthetized by i.p. administration of xylazine and ketamine, decapitated, and exsanguinated. Blood was mixed with 50 μl EDTA (0.5M, pH 7). Plasma was recovered by centrifugation; one-half vol. 10% SSA/0.5 mM DTPA was added. Liver: one lobe was removed, rinsed with H2 O, blotted, weighed, and homogenized in 5% SSA (0.5 Mm DTPA) (5 vol/g tissue). Kidney: one kidney was removed and decapsulated and then processed as with liver.
BSO (6 mmol/kg) was given I.P. fasted animals 2 hours prior to giving GSH, GSH-ME, or GSH-DE (5 mmol/kg); values were determined 1 hour later. […] Each value represents determinations ±S.D. on 3-4 animals.

[2] = tested on: Purified Human T-Lymphoctyes; assay: Thiol levels in purified human T-lymphocytes after treatment with GSH esters; type: cell-based; details: purified T-cells, 0.3 ml 80 mM thiol to 0.9 ml cells, 37° C.
Procedure: HPLC Analysis of Cellular Thiols. […] Flow rates were 1 ml/min.
Purified T-cells were suspended in PBS. […] After incubation at 37° C. for the indicated times, cells were recovered and processed as described for PBM in Table 4.
Where values for cysteine are not reported, levels are <0.3 nmol/10^7cells (for 7 min. samples) or <0.5 nmol/10^7 cells (for 90 mni. samples).

Human Erythrocytes [3] = details: whole blood + one-half volume 120 mM thiol, 30 minutes, 37° C.
Procedure: (§1) Derivatization of Cell Thiols for HPLC Analysis. Derivatization mixtures are as follows: Erythrocyte Lysates: 155 μl 50 mM DTPA (pH 7), 110 μl 3.33% SSA, total 180 μl cell supernatant plus "RBC Mix", 10 μl 0.1M mBBr (in CH3 CN), 100 μl of 2M Tris·HCl (pH 9 at room temperature). The samples were placed in the dark for 20-30 minutes at room temperature; the reaction was quenched with 90 μl of glacial acetic acid. Reduced Erythocyte Lysates. 155 μl mM DTT in 50 mM DTPA (pH 7), SSA, sample, and "RBC Mix" as above Tris was added and the samples were agitated at room temperature for 25 min. 20 μl Tris and 10 μl mBBr were added; the derivatization proceeds as above.
(§2) HPLC Analysis of Cellular Thiols. Samples were chromatographed on an Altex Ultrasphere ODS reverse phase column (5μ; 4.6 mm×25 cm), using one of three gradients: (1) Buffer A: 12.8% MeOH, 0.25% acetic acid, 87.75% H2 O, pH 3.9. (2) Buffer B: 90.0% MeOH, 0.25% acetic acid, 9.75% H2 O (no pH Adjustment). (3) Gradient 1: Initial, 100% A, linear gradient to 50% B at 25 min., linear gradient to 100% B at 35 min., wash with 100% B to 39.5 min.; step to 100% A at 40 min.; equilibration with 100% A to 48 min. Gradient 2: Initial, 100% A, linear gradient to 75% B at 25 min., remainder identical to Gradient 1. Gradient 3: Initial, 100% A, linear gradient to 65% A, 35% B at 25 minutes, remainder identical to gradient 1. Flow rates were 1 ml/min.
Whole blood (see Table 1) was mixed with one-half volume of 120 mM GSH, GSH-ME, or GSH-DE at pH 7. The samples were incubated for 30 minutes at 37° C. and then centrifuged. After removal of plasma and buffy coat, the erythrocytes were washed and processed as described in Table 1.

Human Erythrocytes [4] = details: for Thiol Levels, thiol found GSH / Thiol Levels, Total / Thiol Levels, thiol found GSH-ME: erythrocyte suspension, 80 mM thiol added (one-third vol), 37° C.
Procedure: Analysis of Erythrocyte Thiol by DTNB. Cell supernatant (40 μl) was added to 1 ml of 6 mM DTNB (in 143 mM phosphate buffer, pH 7.5, containing 6.3 mM EDTA). The change in absorbance at 412 nm after 1 min was converted to a value for total thiol using a GSH standard curve. The GSH standard were prepared in a 1:2:2 mixture of PBS: 0.435M acetic acid: 10% SSA (containing 2 mM EDTA) ("RBC Mix").
as §1, §2
Whole blood was collected with EDTA or DTPA (0.5M, pH 7) as anticoagulant (0.4 ml/8-12 ml blood). Plasma and buffy coat were removed after centrifugation and the erythrocytes washed 3 times with 1-2 vol PBS/5 mM DTPA or EDTA. Packed erythrocytes were suspended in one-half vol. PBS. To each suspension was one-third vol. GSH, GSH-ME or GSH-DE (80 mM, pH 7). After incubation at 37° C. for the indicated times, aliquots were removed, washed (3-4×) with PBS/EDTA/DTPA, lysed with one volume 0.435M acetic acid, protein-precipitated with one volume 10% SSA/2 mM DTPA, and centrifuged to remove cell debris. Supernatants were derivatized for HPLC analysis as described in Materials and Methods.

[5] = tested on: Human Peripheral Blood Mononuclear Cells; details: for Thiol Levels, thiol found GSH / Thiol Levels, Total / Thiol Levels, thiol found GSH-ME: isolated PBM, 0.3 ml 80 mM thiol to 0.9 ml cells, 37° C.
Procedure: (§3) T Cell and PBM Lysates: 120 μl 4 mM DTPA, total 360 μl sample/4.31% SSA (containing 0.5 mM DTPA), 100 μl Tris, 5μ mBBr; 20 min. in the dark, 15 μl glacial acetic acid.
as §2
PBM were isolated from whole blood (see Tables 1 and 3) washed with PBS, and re-suspended in PBS. To 0.9 ml cell suspension (5-8×10^6 cells) was added 0.3 ml of 80 mM GSH, GSH-ME or GSH-DE at pH 7. After incubation at 37° C. for the indicated times, the cells were recovered by centrifugation, washed with 14 ml PBS (2×), and lysed by addition of 4.31% of SSA/0.5 mM DTPA and 2-3 freeze-thaw cycles. After centrifugation, supernatants were derivatized for HPLC analysis.

[6] = tested on: Human Peripheral Blood Mononuclear Cells; details: 6 ml whole blood + 3 ml 60 mM thiol, 30 min, 37° C.; PBM
Procedure: as §3, §2
6 mls. whole blood (see Table 1) was mixed with 3 ml of 60 mM GSH, GSH-ME or GSH-DE at pH 7. After 30 min incubation at 37° C., PBM were isolated by Ficoll-Hypaque density gradient centrifugation. Cells were washed with 14 ml PBS (2-3) and lysed with 4.31% SSA/0.5 mM DTPA (400 μl). After centrifugation, the supernatants were derivatized for HPLC analysis.

SMILES: CCCCS(=N)(=O)CCC(N)C(=O)O [BSO, L-buthionine sulfoximine]
- Kidney thiol found GSH ([1]; fasted hamsters, BSO 6 mmol/kg I.P. 2 hours before thiol 5 mmol/kg, kidney): 1.00 ± 0.19 µmol/g
- Liver thiol found GSH ([1]; fasted hamsters, BSO 6 mmol/kg I.P. 2 hours before thiol 5 mmol/kg, liver): 5.10 ± 0.51 µmol/g
- Thiol Levels, thiol found GSH ([2]; 7 min, donor A): 2.39 ± 0.09 nmol/10^7 cells
- Thiol Levels, thiol found GSH ([2]; 90 min, donor B): < 0.6 nmol/10^7 cells

SMILES: N[C@@H](CCC(=O)N[C@@H](CS)C(=O)NCC(=O)O)C(=O)O [GSH, L-γ-glutamyl-L-cysteinyl-glycine]
- Thiol Levels Found, GSH (Human Erythrocytes [3]): 2.12 ± 0.47 mM
- Thiol Levels Found, Total (Human Erythrocytes [3]): 2.12 ± 0.47 mM
- Thiol Levels, thiol found GSH (Human Erythrocytes [4]; 7 min): 1.91 ± 0.05 mM
- Thiol Levels, thiol found GSH (Human Erythrocytes [4]; 45 min): 2.04 ± 0.06 mM
- Thiol Levels, thiol found GSH (Human Erythrocytes [4]; 90 min): 1.83 ± 0.07 mM
- Thiol Levels, thiol found GSH ([5]; 7 min, donor A): 1.86 nmol/10^6 cells
- Thiol Levels, thiol found GSH ([5]; 7 min, donor B): 1.51 nmol/10^6 cells
- Thiol Levels, thiol found GSH ([5]; 45 min, donor B): 1.16 ± 0.06 nmol/10^6 cells
- Thiol Levels, thiol found GSH ([5]; 90 min, donor A): 1.60 nmol/10^6 cells

SMILES: CCOC(=O)CNC(=O)[C@H](CS)NC(=O)CC[C@H](N)C(=O)O [GSH-ME, glutathione monoethyl (glycyl) ester]
- Thiol Levels Found, GSH [6]: 1.46 nmol/10^6 cells
- Thiol Levels Found, GSH-ME [6]: 2.08 nmol/10^6 cells
- Thiol Levels Found, Total [6]: 3.54 nmol/10^6 cells
- Thiol Levels Found, GSH (Human Erythrocytes [3]): 2.35 ± 0.52 mM
- Thiol Levels Found, GSH-ME (Human Erythrocytes [3]): 3.45 ± 0.73 mM
- Thiol Levels Found, Total (Human Erythrocytes [3]): 5.80 ± 1.25 mM
- Thiol Levels, Total (Human Erythrocytes [4]; 7 min): 2.65 ± 0.31 mM
- Thiol Levels, thiol found GSH (Human Erythrocytes [4]; 7 min): 1.72 ± 0.27 mM
- Thiol Levels, thiol found GSH-ME (Human Erythrocytes [4]; 7 min): 0.932 ± 0.04 mM
- Thiol Levels, Total (Human Erythrocytes [4]; 45 min): 3.49 ± 0.35 mM
- Thiol Levels, thiol found GSH (Human Erythrocytes [4]; 45 min): 1.83 ± 0.31 mM
- Thiol Levels, thiol found GSH-ME (Human Erythrocytes [4]; 45 min): 1.66 ± 0.04 mM
- Thiol Levels, Total (Human Erythrocytes [4]; 90 min): 3.57 ± 0.38 mM
- Thiol Levels, thiol found GSH (Human Erythrocytes [4]; 90 min): 1.90 ± 0.30 mM
- Thiol Levels, thiol found GSH-ME (Human Erythrocytes [4]; 90 min): 1.67 ± 0.08 mM
- total RBC thiol levels (Human Erythrocytes [4]; summary of Table 1): about 3 mM
- Blood plasma levels of GSH ([1]; hamsters, 5 mmol/kg after BSO): not affected
- total thiols in human PBM ([5]; in 90 min, text summary of Table 4): 10.6 mM
- Thiol Levels, Total ([5]; 7 min, donor A): 3.32 ± 0.19 nmol/10^6 cells
- Thiol Levels, thiol found GSH ([5]; 7 min, donor A): 2.05 ± 0.08 nmol/10^6 cells
- Thiol Levels, thiol found GSH-ME ([5]; 7 min, donor A): 1.27 ± 0.11 nmol/10^6 cells
- Thiol Levels, Total ([5]; 45 min, donor B): 4.39 ± 0.25 nmol/10^6 cells
- Thiol Levels, thiol found GSH ([5]; 45 min, donor B): 1.64 ± 0.06 nmol/10^6 cells
- Thiol Levels, thiol found GSH-ME ([5]; 45 min, donor B): 2.75 ± 0.19 nmol/10^6 cells
- Thiol Levels, Total ([5]; 90 min, donor A): 10.7 ± 1.3 nmol/10^6 cells
- Thiol Levels, thiol found GSH ([5]; 90 min, donor A): 3.45 ± 0.39 nmol/10^6 cells
- Thiol Levels, thiol found GSH-ME ([5]; 90 min, donor A): 7.23 ± 0.88 nmol/10^6 cells
